# In patent US11091476B2, “Protein kinase inhibitors, preparation method and medical use thereof” (Gan & Lee Pharmaceuticals, priority 2015, dated 2021):
# pIC50: −log10 of the molar value. “Also recorded” adds a separate entry of the source. Like-named read-outs stand apart in the source and are kept apart here.
# What was measured:
# CDK9/CyclinD3 = CDK9/CyclinD3 (Homo sapiens (Human), UniProt P50750); test: Kinase inhibitory activity, ADP-Glo Kinase Assay, CDK9/CyclinD3; type: biochemical
# Experimental: 1.1 Instrument and Kit Information
# (§1) 1.2 Experimental Preparation • 1.2.1 Preparation of Kinase Reaction Buffer I: The 5×Reaction Buffer A (Promega; V307A-C) provided in the kit was mixed and diluted with MILLI-Q® H2O and 0.1 M DTT (dithiothreitol) to give 4× kinase buffer, and then MILLI-Q® H2O was further added to finally formulate the solution into 1× Kinase buffer.
# 1 μl of 10 mM standard substance stock solution was taken and added to 9 μl of kinase reaction buffer I and mixed well; then 90 μl of kinase reaction buffer I was added and mixed well; then 100 μl of kinase reaction buffer I was added and mixed well. The final concentration was 50 μM. • b. 40 μl of kinase reaction buffer II was added into B2 to B10 of a 96-well plate, and 50 μl of the above solution was added into B1; • c. 10 μl of solution was taken from well B1, added into B2, and mixed well; then 10 μl of the resulting solution was taken and added into B3, and dilution was carried out in sequence to B9, so as to obtain control solutions that are diluted by 5-fold sequentially. • (2) Preparation of test compound solution: • a. Test compound solutions at a certain concentration were taken, respectively, diluted with kinase reaction buffer I to a final concentration of 50 μM compound solution; • b. 40 μl of kinase reaction buffer II was added into H2 to H10 of the 96-well plate; and 50 μl of the above solution was added into H1; • c. 10 μl of solution was taken from well H1, added into H2, and mixed well; then 10 μl of the resulting solution was taken and added into H3, and dilution was carried out in sequence to H9, so as to obtain test compound solutions that are diluted by 5-fold sequentially. • 1.2.4 Preparation of a mixed solution of reaction substrate and ATP: • a. Preparation of ATP solution: • 200 μl of 0.1 mM ATP solution: 2 μl of 10 mM ATP was added to 198 μl of kinase reaction buffer I; • 300 μl of 50 μM ATP solution: 150 μl of kinase reaction buffer I was added to 150 μl of the above 0.1 mM ATP solution; • b. Preparation of 300 μl of reaction substrate solution: • 150 μl 1 μg/μl reaction substrate stock solution was added to 150 μl kinase reaction buffer I, and mixed well; • c. The above a/b solutions were mixed to obtain mixed solutions, respectively.
# 1.3 Experimental process: • 1.3.1: 2 μl of compound solutions of various concentrations were taken, added to a 384-well plate, and centrifuged 3 minutes; • 1.3.2: 4 μl of kinase solution was added to each well, centrifuged at 5000 rpm and 18° C. for 10 minutes, and shaken on a plate shaker for 10 minutes; • 1.3.3: 4 μl of mixed solution of substrate and ATP was added to each well, centrifuged at 5000 rpm and 18° C. for 10 minutes, and shaken on a plate shaker at 37° C. for 90 minutes; • 1.3.4: The 384-well plate was taken out, and allowed to stand to room temperature; • 1.3.5: 10 μl of ADP-GLO™ reagent was added to each well, centrifuged at 5000 rpm and 18° C. for 18 minutes, and shaken on a plate shaker at 25° C. for 40 minutes, and then the reaction was stopped; • 1.3.6: 20 μl of kinase detection reagent was added to each well, centrifuged at 5000 rpm and 18° C. for 10 minutes, and shaken on a plate shaker at 25° C. for 30 minutes; and • 1.3.7: M1000pro MICROPLATE READER was used to read […] values.
# (§2) The inhibition rate of each compound at each concentration point was calculated by the formula as follows and curve fitting was performed by GraphPad Prism 5 software to obtain the IC50 value.
# CDK2/CyclinE1 = CDK2/CyclinE1 (Homo sapiens (Human), UniProt P24941); test: Kinase inhibitory activity on CDK2/CyclinE1; type: biochemical
# Experimental: as §1
# 1 μl of 10 mM standard substance stock solution was taken and added to 9 μl of kinase reaction buffer I and mixed well; then 90 μl of kinase reaction buffer I was added and mixed well; then 100 μl of kinase reaction buffer I was added and mixed well. The final concentration was 50 μM. • b. 40 μl of kinase reaction buffer II was added into B2 to B10 of a 96-well plate, and 50 μl of the above solution was added into B1; • c. 10 μl of solution was taken from well B1, added into B2, and mixed well; then 10 μl of the resulting solution was taken and added into B3, and dilution was carried out in sequence to B9, so as to obtain control solutions that are diluted by 5-fold sequentially. • (2) Preparation of test compound solution: • a. […]
# as §2
# [1] = Plasma and brain exposure levels after single intragastric administration; type: in vivo, CD-1 mice; settings: for Cmax: read-out: Blood concentration Cmax, Plasma
# Experimental: The CD-1 mice were used as the test animals, the concentrations of the drugs in the plasma and brain tissue of mice at different time points after single intragastric administration of the representative compound of this disclosure were determined by LC/MS/MS, so as to study the plasma level and brain exposure level of the compounds of the disclosure in mice.
# For each test drug, 12 male CD-1 mice were administered intragastrically at a dose of 10 mg/kg and an administration volume of 10 ml/kg after fasting overnight.
# The whole brain was collected, mashed and frozen in liquid nitrogen. Ten hours after administration, the remaining animals were sacrificed, whole blood was collected by cardiac puncture, and the whole brain was collected, mashed and frozen in liquid nitrogen.
# The whole brain was collected, mashed and frozen in liquid nitrogen. 48 hours after administration, the remaining animals were sacrificed, whole blood was collected by cardiac puncture, and the whole brain was collected, mashed and frozen in liquid nitrogen.
# Treatment of the whole blood sample: The collected whole blood was anticoagulated with EDTA-K2, and centrifuged, the supernatant was removed, and the residue was frozen and stored at −20° C. until the sample was analyzed by LC-MS/MS.
# Brain homogenate sampling: Brain homogenate were dispersed with PBS (pH=7.4): MeOH (v:v, 2:1) solution in a volume 5 times of the volume of the brain homogenate. 100 μl of solution was taken, and the protein therein was precipitated with 600 μl IS. The mixture was centrifuged at 13,000 rpm and 20-25° C. for 15 minutes. 50 μL of the supernatant was mixed with 150 μL of water containing 0.3% FA and centrifuged at 4° C. 5 μL of the sample was analyzed by LC-MS/MS.
# The linear range of sample analysis was 1-2000 ng/ml, and the lowest quantification limit was 1 ng/ml.
# [2] = male, mouse, po, CD-1 mice, intragastric 10 mg/kg, brain, read-out: Area under curve AUC0-last, Brain
# [3] = male, mouse, po, CD-1 mice, intragastric 10 mg/kg, brain, read-out: The time for blood concentration reaching peak Tmax, Brain
# [4] = male, mouse, po, CD-1 mice, intragastric 10 mg/kg, plasma, read-out: Area under curve AUC0-last, Plasma
# [5] = male, mouse, po, CD-1 mice, intragastric 10 mg/kg, plasma
# [6] = male, mouse, po, CD-1 mice, intragastric 10 mg/kg, plasma, read-out: The time for blood concentration reaching peak Tmax, Plasma
# Chain of CDK9/CyclinD3 (P50750 whole entry): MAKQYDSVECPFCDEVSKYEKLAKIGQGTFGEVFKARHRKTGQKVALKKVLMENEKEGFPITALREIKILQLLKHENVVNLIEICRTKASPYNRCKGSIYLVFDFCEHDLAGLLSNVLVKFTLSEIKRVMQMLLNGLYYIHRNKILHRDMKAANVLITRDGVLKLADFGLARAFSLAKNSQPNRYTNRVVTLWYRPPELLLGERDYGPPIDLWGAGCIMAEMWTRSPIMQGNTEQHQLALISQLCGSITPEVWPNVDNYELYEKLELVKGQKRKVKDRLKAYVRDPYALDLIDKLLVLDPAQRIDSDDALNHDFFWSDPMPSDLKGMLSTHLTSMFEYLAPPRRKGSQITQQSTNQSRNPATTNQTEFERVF
# Chain of CDK9/CyclinD3 (O75909 whole entry partner): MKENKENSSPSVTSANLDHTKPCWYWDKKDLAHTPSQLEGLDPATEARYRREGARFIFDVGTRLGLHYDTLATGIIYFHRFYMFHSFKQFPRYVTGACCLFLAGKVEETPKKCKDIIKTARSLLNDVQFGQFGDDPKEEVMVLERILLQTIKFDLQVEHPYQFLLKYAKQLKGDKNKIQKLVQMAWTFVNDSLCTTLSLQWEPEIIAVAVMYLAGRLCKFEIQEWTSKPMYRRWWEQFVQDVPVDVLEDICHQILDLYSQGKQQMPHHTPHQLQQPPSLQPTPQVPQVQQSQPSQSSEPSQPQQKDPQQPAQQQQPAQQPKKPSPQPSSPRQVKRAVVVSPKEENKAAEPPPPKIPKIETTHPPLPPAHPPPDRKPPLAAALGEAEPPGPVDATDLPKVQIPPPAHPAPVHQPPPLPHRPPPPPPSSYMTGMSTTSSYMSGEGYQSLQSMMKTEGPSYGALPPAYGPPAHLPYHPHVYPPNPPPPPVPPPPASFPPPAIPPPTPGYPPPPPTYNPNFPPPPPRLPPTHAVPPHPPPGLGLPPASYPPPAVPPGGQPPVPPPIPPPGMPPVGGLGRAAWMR
Compound,pIC50 (CDK9/CyclinD3),pIC50 (CDK2/CyclinE1),"Blood concentration Cmax, Brain ([1]; CD-1 mice, intragastric 10 mg/kg, brain) [ng/mL]","Kp ([1]; male, mouse, brain/plasma, po, CD-1 mice, intragastric 10 mg/kg, ratio, read-out: Cmax Brain/Plasma)","AUC(0-t) [1, 2] [ng·h/mL]","Tmax [1, 3] [h]","AUC(0-t) [1, 4] [ng·h/mL]","Cmax [1, 5] [ng/mL]","Tmax [1, 6] [h]","Blood brain distribution, in words ([1]; mice, relative to LY2835219)"
"CCN1CCC(c2ccc(Nc3ncc(F)c(-c4cc(F)c5c(c4)C4(CCCC4)C(C)=N5)n3)nc2)CC1 [Example 12, N-(5-(1-ethylpiperidin-4-yl)pyridin-2-yl)-5-fluoro-4-(7′-fluoro-2′-methylspiro [cyclopentane-1,3′-indol]-5′-yl)pyrimidine-2-amino]",7.24,6.40,,,,,,,,
"CC1=Nc2c(F)cc(-c3nc(Nc4ccc(C5CCN(C)CC5)cn4)ncc3F)cc2C12CCCC2 [Example 17, 5-Fluoro-4-(7′-fluoro-2′-methylspiro[cyclopentane-1,3′-indol]-5′-yl)-N-(5-(1-methylpiperidin-4-yl)pyridin-2-yl)pyrimidine-2-amino]",8.27,5.63,1270,1.98,16800,4,7660,639,4,better blood brain distribution; also recorded: good blood-brain distribution
"CCN1CCN(Cc2ccc(Nc3ncc(F)c(-c4cc(F)c5nc(C)n(C(C)C)c5c4)n3)nc2)CC1 [LY2835219, reference compound]",,,,,1110,6,4250,836,1.5,
